Read-outs that look alike come from different tables or passages of the source.
Tests used:
Type in all cases: cell-based, Escherichia coli
ΔtolC-Pore = test system: ΔtolC-Pore
Summary of the method: (§1)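 Interaction of PAβN or NMP with antibiotics is scored as FICI = CA/MICA + CB/MICB, from MICs (no growth, OD600) in MHB II checkerboard microdilution following CLSI. Solvent controls accompany every plate.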

EKO-35-Pore = assay: Checkerboard synergy (FICI), porinated strain
Summary of the method: as §1

wild-type K-12-Pore = assay: Checkerboard synergy (FICI), porinated strain
Summary of the method: as §1

[1] = test system: EKO-35 porinated strain expressing acrB; assay: Checkerboard synergy (FICI), porinated strain
Summary of the method: as §1

[2] = test system: EKO-35-Pore acrBD408A (functionally inactive AcrB variant); assay: Checkerboard synergy (FICI), porinated strain
Summary of the method: as §1

[3] = test system: EKO-35 strains producing different efflux pumps (EKO-35 araC::X); assay: Checkerboard synergy (FICI) of PAβN or NMP with antibiotics
Summary of the method: as §1

[4] = strain ΔtolC Pore, NMP + antibiotic
[5] = strain EKO-35 Pore, NMP + antibiotic
[6] = strain K-12 Pore, NMP + antibiotic
[7] = EKO-35 acrB Pore, NMP + antibiotic
[8] = strain EKO-35 acrB Pore, NMP + antibiotic
[9] = strain EKO-35 acrBD408A Pore, NMP + antibiotic
[10] = EKO-35 acrEF, PAβN + antibiotic
[11] = strain EKO-35 acrD, NMP + antibiotic

In the case of `Cc1onc(-c2ccccc2)c1C(=O)N[C@@H]1C(=O)N2[C@@H]1SC(C)(C)[C@@H]2C(=O)O` [oxacillin], the Effect (ΔtolC-Pore; [4]) is reported as “Additive (additive (FICI >0.5-1.0))”, the FICI (ΔtolC-Pore; [4]) is reported as 0.531 and the “MICb Alone” value (ΔtolC-Pore; strain ΔtolC Pore, antibiotic alone) is reported as 1 µg/mL. The “MICb Combined” value (ΔtolC-Pore; strain ΔtolC Pore, antibiotic in combination with NMP) was 0.5 µg/mL, the Effect (ΔtolC-Pore; ΔtolC Pore, NMP + antibiotic) was “Additive” and the FICI (ΔtolC-Pore; ΔtolC Pore, NMP + antibiotic) was 0.531. The Effect (ΔtolC-Pore; ΔtolC Pore, PAβN + antibiotic) was “Additive”, the FICI (ΔtolC-Pore; ΔtolC Pore, PAβN + antibiotic) was 0.740 and the “MICb Alone” value (ΔtolC-Pore; ΔtolC Pore, antibiotic alone (PAβN checkerboard)) was 0.25 µg/mL. The “MICb Combined” value (ΔtolC-Pore; ΔtolC Pore, antibiotic in combination with PAβN) was 0.06 µg/mL, the Effect (EKO-35-Pore; EKO-35 Pore, NMP + antibiotic) was “Additive” and the FICI (EKO-35-Pore; EKO-35 Pore, NMP + antibiotic) was 0.750. The FICI (EKO-35-Pore; EKO-35 Pore, PAβN + antibiotic) was 1.020, the “MICb Alone” value (EKO-35-Pore; EKO-35 Pore, antibiotic alone (PAβN checkerboard)) was 0.25 µg/mL and the “MICb Combined” value (EKO-35-Pore; EKO-35 Pore, antibiotic in combination with PAβN) was 0.13 µg/mL. The “interaction of PAβN in combination with the labelled antibiotic (FICI)” value (EKO-35-Pore; porinated efflux-deficient strains) was “no longer synergistic”, the Effect (EKO-35-Pore; [5]) was “Additive (additive (FICI >0.5-1.0))” and the FICI (EKO-35-Pore; [5]) was 0.750. The “MICb Alone” value (EKO-35-Pore; strain EKO-35 Pore, antibiotic alone) was 0.5 µg/mL, the “MICb Combined” value (EKO-35-Pore; strain EKO-35 Pore, antibiotic in combination with NMP) was 0.25 µg/mL and the Effect (wild-type K-12-Pore; K-12 Pore, NMP + antibiotic) was “Synergistic”. The FICI (wild-type K-12-Pore; K-12 Pore, NMP + antibiotic) was 0.266, the Effect (wild-type K-12-Pore; K-12 Pore, PAβN + antibiotic) was “Additive” and the FICI (wild-type K-12-Pore; K-12 Pore, PAβN + antibiotic) was 0.750. The “MICb Alone” value (wild-type K-12-Pore; K-12 Pore, antibiotic alone (PAβN checkerboard)) was 32 µg/mL, the “MICb Combined” value (wild-type K-12-Pore; K-12 Pore, antibiotic in combination with PAβN) was 16 µg/mL and the Effect (wild-type K-12-Pore; [6]) was “Synergistic (Synergy (FICI ≤0.5))”. For the same compound, the FICI (wild-type K-12-Pore; [6]) was 0.266, the “MICb Alone” value (wild-type K-12-Pore; strain K-12 Pore, antibiotic alone) was 64 µg/mL and the “MICb Combined” value (wild-type K-12-Pore; strain K-12 Pore, antibiotic in combination with NMP) was 16 µg/mL. The Effect [1, 7] was “Synergistic”, the FICI [1, 7] was 0.500 and the Effect ([1]; EKO-35 acrB Pore, PAβN + antibiotic) was “Synergistic”. The “MICb Combined” value ([1]; EKO-35 acrB Pore, antibiotic in combination with PAβN) was 16 µg/mL, the “potentiation of the labelled compound by NMP” value ([1]; porinated strain producing AcrB) was “enhancing the activity” and the Effect [1, 8] was “Synergistic (Synergy (FICI ≤0.5))”. The FICI [1, 8] was 0.500, the “MICb Alone” value ([1]; strain EKO-35 acrB Pore, antibiotic alone) was 64 µg/mL and the “MICb Combined” value ([1]; strain EKO-35 acrB Pore, antibiotic in combination with NMP) was 16 µg/mL. For the same compound, the FICI ([2]; EKO-35 acrBD408A Pore, NMP + antibiotic) was 2.000, the FICI ([2]; EKO-35 acrBD408A Pore, PAβN + antibiotic) was 1.020 and the “MICb Alone” value ([2]; EKO-35 acrBD408A Pore, antibiotic alone (PAβN checkerboard)) was 0.25 µg/mL. For the same compound, the “MICb Combined” value ([2]; EKO-35 acrBD408A Pore, antibiotic in combination with PAβN) was 0.13 µg/mL, the Effect [2, 9] was “— (indifferent (FICI >1.0))” and the FICI [2, 9] was 2.000. The “MICb Alone” value ([2]; strain EKO-35 acrBD408A Pore, antibiotic alone) was 0.13 µg/mL, the “MICb Combined” value ([2]; strain EKO-35 acrBD408A Pore, antibiotic in combination with NMP) was 0.13 µg/mL and the Effect ([3]; EKO-35 acrB, NMP + antibiotic) was “Additive”. The Effect ([3]; EKO-35 acrB, PAβN + antibiotic) was “Synergistic”, the FICI ([3]; EKO-35 acrB, PAβN + antibiotic) was 0.125 and the “MICb Alone” value ([3]; EKO-35 acrB, antibiotic alone (PAβN checkerboard)) was 1024 µg/mL. The “MICb Combined” value ([3]; EKO-35 acrB, antibiotic in combination with PAβN) was 64 µg/mL, the Effect ([3]; EKO-35 acrD, NMP + antibiotic) was “Additive” and the FICI ([3]; EKO-35 acrD, NMP + antibiotic) was 0.750. For the same compound, the Effect ([3]; EKO-35 acrD, PAβN + antibiotic) was “Synergistic”, the FICI ([3]; EKO-35 acrD, PAβN + antibiotic) was 0.156 and the “MICb Combined” value ([3]; EKO-35 acrD, antibiotic in combination with PAβN) was 16 µg/mL. The Effect ([3]; EKO-35 acrEF, NMP + antibiotic) was “Synergistic”, the Effect [3, 10] was “Synergistic” and the FICI [3, 10] was 0.133. For the same compound, the “MICb Alone” value ([3]; EKO-35 acrEF, antibiotic alone (PAβN checkerboard)) was 256 µg/mL, the “MICb Combined” value ([3]; EKO-35 acrEF, antibiotic in combination with PAβN) was 2 µg/mL and the Effect ([3]; strain EKO-35 acrB, NMP + antibiotic) was “Additive (additive (FICI >0.5-1.0))”. For the same compound, the “MICb Combined” value ([3]; strain EKO-35 acrB, antibiotic in combination with NMP) was 16 µg/mL, the Effect [3, 11] was “Additive (additive (FICI >0.5-1.0))” and the FICI [3, 11] was 0.750. For the same compound, the “MICb Combined” value ([3]; strain EKO-35 acrD, antibiotic in combination with NMP) was 32 µg/mL, the Effect ([3]; strain EKO-35 acrEF, NMP + antibiotic) was “Synergistic (Synergy (FICI ≤0.5))” and the “MICb Alone” value ([3]; strain EKO-35 acrEF, antibiotic alone) was 256 µg/mL. The “MICb Combined” value ([3]; strain EKO-35 acrEF, antibiotic in combination with NMP) was 64 µg/mL.

— patent US20230407243A1, “GENETIC PLATFORM TO INVESTIGATE THE FUNCTIONS OF BACTERIAL DRUG EFFLUX PUMPS” (priority 2022, published 2023)
